Consider 25 compounds from patent US9593097B2, “Axl inhibitors” (Pfizer Inc., priority 2014, dated 2017).

The test addresses Axl phosphorylation in 293MSR-AxlWT6 cells (Homo sapiens (Human), UniProt P30530). Kind of test: Cellular Axl phosphorylation ELISA assay (Gas6-stimulated 293MSR-AxlWT6 cells). It is filed as cell-based. Particulars: Table 4A, read-out: CELL AXL IC50. As for the experimental part:
Cellular Axl Phosphorylation ELISA Assay
After 6-7 hrs in tissue culture incubator at 37° C. 5% CO2, medium was removed, serum-free medium was added (with 0.04% bovine serum albumin) and plates were returned to incubator where they remained overnight. […] Media was then removed and lysis buffer was added to wells and shaken at 4° C. for 30 min to generate protein lysates. Subsequently, phosphorylation of Axl was assessed by a sandwich ELISA method using a DuoSet IC Human Phospho-Axl ELISA assay kit (R&D System), an immobilized mouse anti-human Axl antibody and an anti-phospho-tyrosine-HRP antibody as a detection antibody. Antibody-coated plates were (a) incubated in presence of protein lysates at room temperature for 2 hrs, (b) washed seven times in 0.1% Tween 20 in PBS, (c) incubated with secondary antibody (a horseradish peroxidase-conjugated […]) for 2 hrs, (d) washed seven times again, (e) TMB peroxidase substrate (Bio-Rad) was added to initiate a colorimetric reaction and stopped by adding 0.2 N H2SO4, and (f) measured at OD 450 nm using a spectrophotometer. IC50 values were calculated by concentration-response curve fitting using a four-parameter analytic method and reported in μM.
For Table 4B, IC50 values were calculated by concentration-response curve fitting using a four-parameter analytic method and reported in nM.
Background: An ELISA detects its analyte on a solid surface through an enzyme-linked reagent.

Chain of Axl phosphorylation in 293MSR-AxlWT6 cells (P30530 26-894): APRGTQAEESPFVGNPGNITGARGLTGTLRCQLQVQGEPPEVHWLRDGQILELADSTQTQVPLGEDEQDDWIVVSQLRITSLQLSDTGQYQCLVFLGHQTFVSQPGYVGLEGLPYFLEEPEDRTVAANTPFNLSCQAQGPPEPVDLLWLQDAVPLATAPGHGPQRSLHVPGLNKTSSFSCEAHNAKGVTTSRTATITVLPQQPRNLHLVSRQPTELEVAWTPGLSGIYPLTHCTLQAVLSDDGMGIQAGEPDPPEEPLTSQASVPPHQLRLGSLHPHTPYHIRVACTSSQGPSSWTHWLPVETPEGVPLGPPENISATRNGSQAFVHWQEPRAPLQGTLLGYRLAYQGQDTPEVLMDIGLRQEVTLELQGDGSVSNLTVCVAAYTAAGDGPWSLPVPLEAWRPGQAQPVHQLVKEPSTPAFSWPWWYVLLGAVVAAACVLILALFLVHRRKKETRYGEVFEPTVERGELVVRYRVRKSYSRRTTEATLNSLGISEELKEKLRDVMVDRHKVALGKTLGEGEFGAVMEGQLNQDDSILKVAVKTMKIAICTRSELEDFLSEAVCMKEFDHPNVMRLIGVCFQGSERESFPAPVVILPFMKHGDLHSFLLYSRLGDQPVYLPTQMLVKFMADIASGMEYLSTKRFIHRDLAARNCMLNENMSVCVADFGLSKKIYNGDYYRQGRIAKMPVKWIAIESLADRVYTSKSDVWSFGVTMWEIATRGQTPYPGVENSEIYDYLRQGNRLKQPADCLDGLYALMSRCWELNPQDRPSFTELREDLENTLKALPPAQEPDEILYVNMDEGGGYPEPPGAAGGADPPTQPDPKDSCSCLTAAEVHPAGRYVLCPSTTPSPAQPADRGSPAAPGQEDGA

In the case of `C[C@@H](O)COc1nc(C(=O)NC23CC(C2)C3)cc(N2CCC(c3n[nH]c4ncccc34)CC2)n1` [Example 70, N-(bicyclo[1.1.1]pent-1-yl)-2-[(2R)-2-hydroxypropoxy]-6-[4-(1H-pyrazolo[3,4-b]pyridin-3-yl)piperidin-1-yl]pyrimidine-4-carboxamide], the IC50 came out at 40.8 nM.

For the compound `CCNC(=O)c1cc(N2CCC(COc3cc(-c4cn(C)cn4)cnc3N)CC2)nc(O[C@H](C)COC)n1` [Example 68, 6-[4-({[2-amino-5-(1-methyl-1H-imidazol-4-yl)pyridin-3-yl]oxy}methyl)piperidin-1-yl]-N-ethyl-2-{[(2R)-1-methoxypropan-2-yl]oxy}pyrimidine-4-carboxamide], the IC50 was 2.94 nM.

Turning to `CCNC(=O)c1cc(N2CCC(COc3cc(-c4cnn(CCO)c4)cnc3N)CC2)nc(O[C@H](C)COC)n1` [Example 86, 6-{4-[({2-amino-5-[1-(2-hydroxyethyl)-1H-pyrazol-4-yl]pyridin-3-yl}oxy)methyl]piperidin-1-yl}-N-ethyl-2-{[(2R)-1-methoxypropan-2-yl]oxy} pyrimidine-4-carboxamide], the IC50 amounted to 16.7 nM.

Turning to `COC[C@@H](C)Oc1nc(C(=O)NC2(C#N)CCC2)cc(N2CCC(c3n[nH]c4ncccc34)CC2)n1` [Example 14, N-(1-cyanocyclobutyl)-2-{[(2R)-1-methoxypropan-2-yl]oxy}-6-[4-(1H-pyrazolo[3,4-b]pyridin-3-yl)piperidin-1-yl]pyrimidine-4-carboxamide], the IC50 was found to be 12.4 nM.

As to `C[C@H](CO)NC(=O)c1cc(N2CCC(c3n[nH]c4ncccc34)CC2)nc(OC[C@H]2C[C@H]2C#N)n1` [Example 43, 2-{[(1S,2R)-2-cyanocyclopropyl]methoxy}-N-[(2R)-1-hydroxypropan-2-yl]-6-[4-(1H-pyrazolo[3,4-b]pyridin-3-yl)piperidin-1-yl]pyrimidine-4-carboxamide], the IC50 is 131 nM.

In the case of `N#C[C@@H]1C[C@@H]1COc1nc(C(=O)NC23CC(C2)C3)cc(N2CCC(c3n[nH]c4nccc(OCCO)c34)CC2)n1` [Example 65, N-(bicyclo[1.1.1]pent-1-yl)-2-{[(1S,2R)-2-cyanocyclopropyl]methoxy}-6-{4-[4-(2-hydroxyethoxy)-1H-pyrazolo[3,4-b]pyridin-3-yl]piperidin-1-yl}pyrimidine-4-carboxamide], the IC50 was determined as 1.86 nM.

As to `C[C@@H](NC(=O)c1cc(N2CCC(c3ccc(N)c(C(N)=O)n3)CC2)nc(OCC2CC2(F)F)n1)C(C)(C)O` (single isomer, unassigned) [Example 16], the IC50 turned out to be 12.6 nM.

In the case of `N#C[C@@H]1C[C@@H]1COc1nc(C(=O)NC(CCO)C(F)(F)F)cc(N2CCC(COc3cncnc3N)CC2)n1` (stereo partly drawn) [Example 63, 6-(4-{[(4-aminopyrimidin-5-yl)oxy]methyl}piperidin-1-yl)-2-{[(1S,2R)-2-cyanocyclopropyl]methoxy}-N-(1,1,1-trifluoro-4-hydroxybutan-2-yl)pyrimidine-4-carboxamide], the IC50 turned out to be 455 nM.

Consider `COc1ccnc2[nH]nc(C3CCN(c4cc(C(=O)N[C@@H](C)C(F)(F)F)nc(OC[C@H]5CCO5)n4)CC3)c12` [Example 381, 6-[4-(4-methoxy-1H-pyrazolo[3,4-b]pyridin-3-yl)piperidin-1-yl]-2-[(2R)-oxetan-2-ylmethoxy]-N-[(2S)-1,1,1-trifluoropropan-2-yl]pyrimidine-4-carboxamide], for which the IC50 was 0.77 nM.

On to `N#CC1(COc2nc(C(=O)NCC(F)(F)F)cc(N3CCC(COc4cncnc4N)CC3)n2)CC1` [Example 31, 6-(4-{[(4-aminopyrimidin-5-yl)oxy]methyl}piperidin-1-yl)-2-[(1-cyanocyclopropyl)methoxy]-N-(2,2,2-trifluoroethyl) pyrimidine-4-carboxamide], for which the IC50 stood at 12.6 nM.

Consider `C[C@H](CO)NC(=O)c1cc(N2CCC(c3n[nH]c4ncccc34)CC2)nc(OC[C@H]2CCOC2)n1` [Example 383, N-[(2R)-1-hydroxypropan-2-yl]-6-[4-(1H-pyrazolo[3,4-b]pyridin-3-yl)piperidin-1-yl]-2-[(3S)-tetrahydrofuran-3-ylmethoxy]pyrimidine-4-carboxamide], for which the IC50 came to 120 nM.

On to `COC[C@@H](C)Oc1nc(C(=O)NCC2CC2)nc(N2CCC(c3ccc(N)c(C(N)=O)n3)CC2)n1` [Example 58, 4-[4-(5-amino-6-carbamoylpyridin-2-yl)piperidin-1-yl]-N-(cyclo-propylmethyl)-6-{[(2R)-1-methoxypropan-2-yl]oxy}-1,3,5-triazine-2-carboxamide], for which the IC50 is 23.8 nM.

In the case of `CCOc1nc(C(=O)NC2CCC2)cc(N2CCC(c3nc(C(N)=O)ccc3OCCN(C)C)CC2)n1` [Example 2, 6-(4-{6-carbamoyl-3-[2-(dimethylamino)ethoxy]pyridin-2-yl}piperidin-1-yl)-N-cyclobutyl-2-ethoxypyrimidine-4-carboxamide], the IC50 amounted to 246 nM.

As to `COc1ccnc2[nH]cc(C3CCN(c4nc(OC[C@H]5C[C@H]5C#N)nc(C(=O)NC5(C)CCC5)n4)CC3)c12` [Example 378, 4-{[(1S,2R)-2-cyanocyclopropyl]methoxy}-6-[4-(4-methoxy-1H-pyrrolo[2,3-b]pyridin-3-yl)piperidin-1-yl]-N-(1-methylcyclobutyl)-1,3,5-triazine-2-carboxamide], the IC50 amounted to 0.24 nM.

As to `COC[C@@H](C)Oc1nc(C(=O)NC23CC(C2)C3)cc(N2CCC(COc3nc(C)cnc3N)CC2)n1` [Example 24, 6-(4-{[(3-amino-6-methylpyrazin-2-yl)oxy]methyl}piperidin-1-yl)-N-(bicyclo[1.1.1]pent-1-yl)-2-{[(2R)-1-methoxypropan-2-yl]oxy}pyrimidine-4-carboxamide], the IC50 was determined as 1.92 nM.

For the compound `C[C@H](CO)NC(=O)c1cc(N2CCC(c3c[nH]c4ncccc34)CC2)nc(OC[C@H]2CCO2)n1` [Example 50, N-[(2R)-1-hydroxypropan-2-yl]-2-[(2R)-oxetan-2-ylmethoxy]-6-[4-(1H-pyrrolo[2,3-b]pyridin-3-yl)piperidin-1-yl]pyrimidine-4-carboxamide], the 50% inhibitory concentration (IC50) was found to be 15.5 nM.

On to `C[C@H](NC(=O)c1cc(N2CCC(c3cccc(C(N)=O)n3)CC2)nc(OCC2(C#N)CC2)n1)C(F)(F)F` [Example 13, 6-[4-(6-carbamoylpyridin-2-yl)piperidin-1-yl]-2-[(1-cyanocyclopropyl)methoxy]-N-[(2S)-1,1,1-trifluoropropan-2-yl]pyrimidine-4-carboxamide], for which the IC50 worked out at 59 nM.

Regarding `NC(=O)c1nc(C2CCN(c3cc(C(=O)NCC(F)(F)F)nc(OCC4CC4(F)F)n3)CC2)ccc1N` (stereo not shown) [Example 5, 6-[4-(5-amino-6-carbamoylpyridin-2-yl)piperidin-1-yl]-2-[(2,2-difluoro-cyclopropyl)methoxy]-N-(2,2,2-trifluoroethyl) pyrimidine-4-carboxamide], the IC50 was found to be 12.4 nM.

On to `COC[C@@H](C)Oc1nc(C(=O)NCC(F)(F)F)cc(N2CCC(c3ccc(N)c(C(N)=O)n3)CC2)n1` [Example 6, 6-[4-(5-amino-6-carbamoylpyridin-2-yl)piperidin-1-yl]-2-{[(2R)-1-methoxypropan-2-yl]oxy}-N-(2,2,2-trifluoroethyl) pyrimidine-4-carboxamide], for which the IC50 was 29.1 nM.

With `N#CC1(COc2nc(C(=O)NCC(F)(F)F)nc(N3CCC(COc4cccnc4N)CC3)n2)CC1` [Example 91, 4-(4-{[(2-aminopyridin-3-yl)oxy]methyl}piperidin-1-yl)-6-[(1-cyanocyclopropyl)methoxy]-N-(2,2,2-trifluoroethyl)-1,3,5-triazine-2-carboxamide], the IC50 was 64.9 nM.

On to `C[C@H](CO)NC(=O)c1cc(N2CCC(COc3cc(-c4cn(C)cn4)cnc3N)CC2)nc(OCC2CC2)n1` [Example 384, 6-[4-({[2-amino-5-(1-methyl-1H-imidazol-4-yl)pyridin-3-yl]oxy}methyl)piperidin-1-yl]-2-(cyclopropylmethoxy)-N-[(2R)-1-hydroxypropan-2-yl]pyrimidine-4-carboxamide], for which the IC50 is 0.36 nM.

For `C[C@@H](NC(=O)c1cc(N2CCC(c3cccc(C(N)=O)n3)CC2)nc(OCC2CC2(F)F)n1)C(C)(C)O` (stereo partly drawn) [Example 17, 6-[4-(6-carbamoylpyridin-2-yl)piperidin-1-yl]-2-[(2,2-difluoro-cyclopropyl)methoxy]-N-[(2R)-3-hydroxy-3-methylbutan-2-yl]pyrimidine-4-carboxamide], the IC50 is 39.9 nM.

“6-{4-[(3-amino- 1H-indazol-4- yl)oxy]piperidin-1- yl}-N- (bicyclo[1.1.1]pent- 1-yl)-2-[(1- cyanocyclopropyl) methoxy] pyrimidine- 4-carboxamide [Example 19]”: the IC50 was found to be 24.7 nM.

On to `N#C[C@@H]1C[C@@H]1COc1nc(C(=O)NC23CC(C2)C3)nc(N2CCC(COc3cncnc3N)CC2)n1` [Example 66, 4-(4-{[(4-aminopyrimidin-5-yl)oxy]methyl}piperidin-1-yl)-N-(bicyclo[1.1.1]pent-1-yl)-6-{[(1S,2R)-2-cyanocyclopropyl]methoxy}-1,3,5-triazine-2-carboxamide], for which the IC50 came out at 61.8 nM.

On to `COC[C@@H](C)Oc1nc(C(=O)NC2CCC2)cc(N2CCC(c3cccc(C(N)=O)n3)CC2)n1` [Example 11, 6-[4-(6-carbamoylpyridin-2-yl)piperidin-1-yl]-N-cyclobutyl-2-{[(2R)-1-methoxypropan-2-yl]oxy}pyrimidine-4-carboxamide], for which the IC50 was determined as 10.2 nM.

A word on the IC50: it is the concentration that inhibits the measured activity by half.
